Values of other authors as cited in patent US8071577B2, “Multi-phase contraceptive preparation based on a natural estrogen” (Bayer Pharma Aktiengesellschaft, priority 2004, dated 2011).

Tested on: ovulation
Conditions: daily dose known from the literature

Q: Which ovulation-inhibitory dose does the source give for `C[C@]12CCC3=C4CCC(=O)C=C4CC[C@H]3[C@@H]1CC[C@@]2(O)CC#N` [dienogest] here?
A: 1.0 mg a day

Q: With `C[C@]12CCC(=O)C=C1[C@@H]1C[C@@H]1[C@H]1[C@@H]3[C@@H]4C[C@@H]4[C@@]4(CCC(=O)O4)[C@@]3(C)CC[C@@H]12` [drospirenone] as the compound, how does the ovulation-inhibitory dose read?
A: 2.0-3.0 mg a day
